US20050118249A1, “Lipid carrier compositions and methods for improved drug retention” (priority 2001, published 2005)

How the values were obtained:
[1] = Retention of FUDR in DSPC/DSPG/Chol liposomes in blood after intravenous injection; assay type: in vivo, Balb/c mice; conditions: DSPC/DSPG/Chol (70:20:10) liposomes; intraliposomal solution of less than 500 mOsm/kg; i.v., 1, 4, 24 h
Protocol: DSPC/DSPG/Chol (70:20:10 mole ratio) were prepared following the methods of Example 1 except that lipid films were hydrated in either saline or Cu(II)gluconate, pH 7.4 containing 25 mg/mL FUDR at 70° C. Cu(II)gluconate was added at either 100 or 200 mM (321 and 676 mOsm/kg, respectively) and the pH was adjusted to 7.4 by addition of triethanolamine (TEA). Trace amounts of 14C-CHE and ^3H-FUDR were used as lipid and drug markers, respectively. The resulting MLVs were extruded at 75° C. through two stacked 100 nm pore size filters for a total of ten passes. Liposomes were buffer exchanged into HBS, pH 7.4 using a hand-held tangential flow column. A total lipid dose of 3.3 μmoles (165 μmoles/kg) was administered to female Balb/c mice in a final volume of 200 μL immediately after preparation (within 1-2 hrs). Blood samples were removed by cardiac puncture 1, 4 and 24-hours post administration (3 mice per time point). Lipid and FUDR levels were determined using liquid scintillation counting and values were reported as the mean±SD.

[2] = Retention of daunorubicin in liposomes with varying internal citrate, 4 hours after injection; assay type: in vivo, Balb/c mice; conditions: DSPC/DSPE-PEG2000 (95:5) liposomes; 100, 150 and 200 mM internal citrate (about 200, 300, 400 mOsm/kg); 4 hours after i.v. injection
Protocol: DSPC/DSPE-PEG2000 (95:5 mole ratio) liposomes containing the non-exchangeable marker 3H-CHE were prepared as described in Example 1, except that lipid films were hydrated with 100, 150, 200, 250 or 300 mM citrate, pH 4.0 (corresponding to osmolarity levels of about 200, 300, 400, 500 or 600 mOsm/kg, respectively).
Daunorubicin was loaded at a 0.2:1 drug-to-lipid mole ratio with the methods detailed above into each of the five liposomal formulations. The resulting liposomes were administered to female Balb/c mice at a lipid dose of 165 μmoles/kg in a final volume of 200 μL immediately after preparation (within 1-2 hrs). Blood samples were removed 4 hours after administration by cardiac puncture (3 mice per time point). Lipid and daunorubicin levels were determined as described previously and percent initial drug-to-lipid ratio was reported as the mean±SD.

[3] = Retention of daunorubicin in liposomes in blood after intravenous injection (time course); assay type: in vivo, Balb/c mice; conditions: DSPC/DSPE-PEG2000 (95:5) liposomes; internal citrate 600 mOsm/kg (300 mM) in relation to 300 mOsm/kg (150 mM); i.v., 1, 4, 24 h
Protocol: DSPC/DSPE-PEG2000 liposomes (95:5 mole ratio) containing 150 or 300 mM citrate (300 or 600 mOsm/kg), pH 4 and DSPC/Cholesterol (55:45 mole ratio) and DSPC/Cholesterol/DSPE-PEG2000 (50:45:5 mole ratio) liposomes containing 150 mM citrate, pH 4 were prepared as described in Example 1. Liposomes were subsequently combined with daunorubicin at a 0.2:1 drug to lipid mole ratio. To facilitate drug loading, the mixtures were incubated at 40° C. for 60 minutes.
The resulting daunorubicin-containing liposomes were administered to Balb/c female mice at a lipid dose of 165 μmoles/kg as detailed above. Blood samples were removed at 1, 4 and 24 hours post administration by cardiac puncture (3 mice per time point). Lipid levels were determined by liquid scintillation counting. Daunorubicin was extracted from plasma samples and quantified as follows: a defined volume of plasma was adjusted to 200 μL with distilled water followed by addition of 600 μL of distilled water, 100 μL of 10% SDS and 100 μL of 10 mM H2SO4. This solution was mixed and 2 mLs of 1:1 isopropanol/chloroform was added followed by vortexing. […] The bottom organic layer was removed and assayed for fluorescence intensity at 500 nm as the excitation wavelength (2.5 nm bandpass) and 550 nm as an emission wavelength (10 nm bandpass) and using an absorbance wavelength of 480 nm.

[4] = Retention of idarubicin in liposomes with varying internal citrate after intravenous injection; assay type: in vivo, Balb/c mice; conditions: DSPC/DSPE-PEG2000 (95:5) liposomes; 300 mM citrate (>500 mOsm/kg) in relation to 100 and 150 mM (<500 mOsm/kg); i.v., 0.5-24 h
Protocol: DSPC/DSPE-PEG2000 (95:5 mole ratio) liposomes prepared with 100, 150 and 300 mM citrate were also loaded with idarubicin at a drug to lipid mole ratio of 0.25:1. Loading was facilitated by incubating the drug and liposomes at 37° C. for 60 minutes. Liposomes were administered to Balb/c mice as indicated and blood samples were removed by cardiac puncture at 0.5, 1, 2, 4 and 24-hours post administration (3 mice per time point). Idarubicin concentration was quantitated using fluorescence intensity at 485 nm as the excitation wavelength and 535 nm as an emission wavelength and using an absorbance wavelength of 482 nm.

[5] = Drug-to-lipid ratio of irinotecan before and after freezing of dual-loaded DSPC/DSPG liposomes; assay type: physicochemical; conditions: 0-20 mole % cholesterol, with FUDR, 250 mM CuSO4 inside (<500 mOsm/kg), frozen at -20° C. and -70° C. for 24 hours
Protocol: FUDR and irinotecan were loaded into cholesterol-free liposomes containing a low osmolarity internal solution and drug retention and liposome size were measured prior to and after freezing. DSPC/DSPG liposomes containing 0-20 mole % cholesterol, 20 mole % DSPG and passively entrapped FUDR were prepared as described previously and hydrated in 250 mM CuSO4 (<500 mOsm/kg). The MLVs were extruded at 70° C. as detailed above and buffered exchanged into saline and then into 300 mM sucrose, 20 mM Hepes, 30 mM EDTA (SHE), pH 7.4 using a hand-held tangential flow column. The sample was then further exchanged into 300 mM sucrose, 20 mM Hepes, pH 7.4 to remove residual EDTA. The liposomes were subsequently loaded with irinotecan at a drug-to-lipid mole ratio of 0.1:1 by mixing the two solutions at 50° C. for five minutes. The dual-loaded liposomes were then buffered exchanged into HBS using tangential flow to remove any unencapsulated drug.
The influence of freezing on liposome stability was determined by freezing the liposomes at either −20° C. or −70° C. for 24 hours. […] Lipid and FUDR levels were quantified using liquid scintillation and absorbance at 370 nm was used to determine irinotecan concentration. Particle sizing of the liposomes was also determined prior to and after freezing using quasi-elastic light scattering.

[6] = Retention of vincristine in liposomes in blood after intravenous injection; assay type: in vivo, Balb/c mice; conditions: i.v., 1, 4, 24 h
Protocol: Solutions of lipids in chloroform were combined to give a 95:5 molar ratio of DSPC/DSPE-PEG2000 or a 55:45 molar ratio of DSPC/Cholesterol, with trace amounts of ^14C-cholesteryl hexadecyl ether (^14C-CHE). The resulting mixtures were dried under a stream of nitrogen gas and placed in a vacuum pump overnight. The samples were hydrated at 70° C. with either 300 mM citrate, pH 4.0 (about 600 milliosmoles/kg (mOsm/kg)) or 150 mM citrate buffer, pH 4.0 (about 300 mOsm/kg) and passed through an extrusion apparatus (Northern Lipids Inc., Vancouver, BC) ten times with two 100 nm pore size polycarbonate filters at 70° C. Average liposome size was determined by quasi-elastic light scattering using a NICOMP 370 submicron particle sizer operating at a wavelength of 632.8 nm. The resulting liposomes were applied to a Sephadex G50 column equilibrated with HBS (20 mM HEPES, 150 mM NaCl, about 320 mOsm/kg), pH 7.45 to exchange the external liposomal buffer. […]
Vincristine-containing liposomes were administered intravenously to Balb/c mice at a lipid dose of 165 μmoles/kg in a final volume of 200 μL immediately after preparation (within 1-2 hrs). […] Lipid and vincristine levels were quantified by liquid scintillation counting and the values were reported as the mean ± standard deviation (SD).

O=c1[nH]c(=O)n([C@H]2C[C@H](O)[C@@H](CO)O2)cc1F [FUDR, Floxuridine]
FUDR retention (FUDR levels remaining in the blood) [1]: optimally retained

COc1cccc2c1C(=O)c1c(O)c3c(c(O)c1C2=O)C[C@@](O)(C(C)=O)C[C@@H]3O[C@H]1C[C@H](N)[C@H](O)[C@H](C)O1 [daunorubicin]
retention of daunorubicin (percent initial daunorubicin-to-lipid ratio remaining in the blood) [2]: optimal retention | daunorubicin retention (percent initial daunorubicin-to-lipid ratio remaining in the blood) [3]: compromised

CC(=O)[C@]1(O)Cc2c(O)c3c(c(O)c2[C@@H](O[C@H]2C[C@H](N)[C@H](O)[C@H](C)O2)C1)C(=O)c1ccccc1C3=O [idarubicin]
idarubicin retention (idarubicin-to-lipid mole ratio in the blood) [4]: significantly decreased

CCc1c2c(nc3ccc(OC(=O)N4CCC(N5CCCCC5)CC4)cc13)-c1cc3c(c(=O)n1C2)COC(=O)[C@]3(O)CC [irinotecan]
retention of irinotecan after freezing (drug-to-lipid ratio) [5]: effectively retained

CC[C@]1(O)C[C@H]2CN(CCc3c([nH]c4ccccc34)[C@@](C(=O)OC)(c3cc4c(cc3OC)N(C=O)[C@H]3[C@@](O)(C(=O)OC)[C@H](OC(C)=O)[C@]5(CC)C=CCN6CC[C@]43[C@@H]65)C2)C1 [vincristine]
retention of vincristine (percent initial vincristine-to-lipid weight ratio in the blood) ([6]; DSPC/DSPE-PEG2000 (95:5 mole ratio) liposomes, internal citrate 300 mOsm/kg (150 mM) compared to 600 mOsm/kg (300 mM)): significantly enhanced | retention of vincristine (percent initial vincristine-to-lipid weight ratio in the blood) ([6]; DSPC/cholesterol (55:45 mole ratio) liposomes, 150 mM vs 300 mM internal citrate): independent of the osmolarity of the intraliposomal solution
